Earlier results on 1 molecule are cited in patent publication US6288110A, “Pharmaceutical compositions comprising disulfiram” (Yeda Research and Development Co Ltd., priority 1998, dated 2001).

The conditions of the series: non-enzymatic degradation; cited from earlier work.

Structures are written as SMILES.

As to `CCN(CC)C(=S)S` [DDC, diethyldithiocarbamate], the “further metabolism of DDC” value is recorded as “non-enzymatic degradation to diethylamine (DEA)”.
